In ChEMBL document CHEMBL1124282, “Synthesis of fluorescent muramyl dipeptide congeners. 2” (1988):

How the values were obtained:
[1] = species on record: Cavia porcellus; experiment: Antibody response to the compound was determined in guinea pigs; assay type: functional
[2] = species on record: Cavia porcellus; experiment: Adjuvant activity was determined by the ability of compound to stimulate delayed hypersensitivity by intradermal injection of 10 ug of ovalbumin after 48 hr in guinea pigs; assay type: functional

Structure (SMILES) | Antibody response [1] | DTH [2]
COc1ccc2c(c1)Oc1cc(O)ccc1/C2=C1C=C/C(=N/c2nc(O)nc(NCCCC[C@H](NC(=O)[C@@H](C)OC3C(O)C(CO)OC(O)C3NC(C)=O)C(=O)N[C@H](CCC(=O)O)C(N)=O)n2)C=C\1C(=O)O (stereo partly drawn) | 17.6 | 2.9
COc1ccc2c(c1)Oc1cc(O)ccc1/C2=C1C=C/C(=N/c2nc(O)nc(NCCCC[C@H](NC(=O)CC[C@@H](NC(=O)[C@H](C)NC(=O)[C@@H](C)OC3C(O)C(CO)OC(O)C3NC(C)=O)C(N)=O)C(=O)O)n2)C=C\1C(=O)O (stereo partly drawn) | 192 | 20.2
COc1ccc2c(c1)Oc1cc(O)ccc1/C2=C1C=C/C(=N/c2nc(O)nc(OCC3OC(O)C(NC(C)=O)C(O[C@H](C)C(=O)N[C@@H](C)C(=O)N[C@H](CCC(=O)O)C(N)=O)C3O)n2)C=C\1C(=O)O (stereo partly drawn) | 123.34 | 11.5
CC(=O)N[C@H]1C(O)O[C@H](CO)[C@@H](O)[C@@H]1O[C@H](C)C(=O)N[C@@H](C)C(=O)N[C@H](CCC(=O)O)C(N)=O (stereo partly drawn) [MURAMYL DIPEPTIDE] | 82.49 | 10.6
